Measurements as given in patent publication US20250368649A1, “TETRAHYDROPYRIDOPYRIMIDINE PAN-KRAS INHIBITORS” (Mirati Therapeutics, Inc., priority 2022, published 2025).

Experiments:
KRas G12V = KRas G12V (Homo sapiens, UniProt P01116, G12V); experiment: biochemical; conditions: Binding to KRas (IC50 nM) G12V, TR-FRET displacement, KRas G12V
H358 cells = experiment: Inhibition of KRas-mediated phosphorylation of ERK (Cisbio HTRF pERK), H358 cells; type: cell-based; conditions: Homo sapiens, NCI-H358, 3 h, 3 hr compound incubation, Cisbio pERK HTRF
KRas G12R = KRas G12R (Homo sapiens, UniProt P01116, G12R); experiment: biochemical; conditions: Binding to KRas (IC50 nM) G12R, TR-FRET displacement, KRas G12R
Sequence of KRas G12R (P01116 1-169 isoform P01116-2 G12R): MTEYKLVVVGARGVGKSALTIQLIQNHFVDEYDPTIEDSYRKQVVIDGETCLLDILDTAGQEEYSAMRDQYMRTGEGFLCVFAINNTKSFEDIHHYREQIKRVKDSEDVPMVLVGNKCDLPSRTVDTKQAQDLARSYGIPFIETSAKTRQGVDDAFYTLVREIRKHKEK

KRas G12D = KRas G12D (Homo sapiens, UniProt P01116, G12D); experiment: biochemical; conditions: Binding to KRas (IC50 nM) G12D, TR-FRET displacement, KRas G12D
Sequence of KRas G12D (P01116 1-169 isoform P01116-2 G12D): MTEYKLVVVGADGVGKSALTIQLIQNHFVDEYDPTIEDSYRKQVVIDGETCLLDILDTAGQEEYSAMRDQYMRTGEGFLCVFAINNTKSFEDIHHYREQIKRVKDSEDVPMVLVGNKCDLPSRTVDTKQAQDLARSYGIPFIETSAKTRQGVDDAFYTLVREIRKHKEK

H727 cells = experiment: Inhibition of KRas-mediated phosphorylation of ERK (Cisbio HTRF pERK), H727 cells; type: cell-based; conditions: Homo sapiens, NCI-H727, 3 h, 3 hr compound incubation, Cisbio pERK HTRF
PSN1 cells = experiment: Inhibition of KRas-mediated phosphorylation of ERK (Cisbio HTRF pERK), PSN1 cells; type: cell-based; conditions: Homo sapiens, PSN1, 3 h, 3 hour compound incubation, Cisbio pERK HTRF
Procedure, shortened: (§1)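 Growth medium is RPMI with 10% FBS, and each well receives 6,000 cells on the first day of the protocol.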

H460 cells = experiment: Inhibition of KRas-mediated phosphorylation of ERK (Cisbio HTRF pERK), H460 cells; type: cell-based; conditions: Homo sapiens, NCI-H460, 3 h, 3 hr compound incubation, Cisbio pERK HTRF
A549 cells = experiment: Inhibition of KRas-mediated phosphorylation of ERK (Cisbio HTRF pERK), A549 cells; type: cell-based; conditions: Homo sapiens, A549, 3 h, 3 hr compound incubation, Cisbio pERK HTRF
MKN1 cells = experiment: Inhibition of KRas-mediated phosphorylation of ERK (Cisbio HTRF pERK), MKN1 cells; type: cell-based; conditions: Homo sapiens, MKN-1, 3 hour compound incubation, Cisbio pERK HTRF
Procedure, shortened: as §1

ASPC1 cells = experiment: Inhibition of KRas-mediated phosphorylation of ERK (Cisbio HTRF pERK), ASPC1 cells; type: cell-based; conditions: Homo sapiens, ASPC1, 3 h, AsPC-1 cells; 3 hr compound incubation; Cisbio pERK HTRF
HCT116 cells = experiment: Inhibition of KRas-mediated phosphorylation of ERK (Cisbio HTRF pERK), HCT116 cells; type: cell-based; conditions: Homo sapiens, HCT-116, 3 h, 3 hr compound incubation, Cisbio pERK HTRF

Sequence of KRas G12V (P01116 1-169 isoform P01116-2 G12V): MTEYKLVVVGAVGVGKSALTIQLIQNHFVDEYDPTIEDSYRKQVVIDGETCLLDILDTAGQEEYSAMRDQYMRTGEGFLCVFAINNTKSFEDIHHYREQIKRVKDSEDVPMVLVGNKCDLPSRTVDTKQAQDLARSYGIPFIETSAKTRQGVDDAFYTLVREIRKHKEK

IC50 (KRas G12V) [nM]	IC50 (H358 cells) [nM]	IC50 (KRas G12R) [nM]	IC50 (KRas G12D) [nM]	IC50 (H727 cells) [nM]	IC50 (PSN1 cells) [nM]	IC50 (H460 cells) [nM]	IC50 (A549 cells) [nM]	IC50 (MKN1 cells) [nM]	IC50 (ASPC1 cells) [nM]	IC50 (HCT116 cells) [nM]	Compound
< 2	111	< 2	3	191	6500	163	125	19.7	273	439	CCc1c(F)ccc2cc(O)cc(N3CCc4c(nc(OC[C@@]56CCCN5C[C@H](F)C6)nc4N4C[C@@H]5C[C@H](C4)[C@H](O)C5)C3)c12 [Example 585B, (1R,5R,6R)-3-(7-(8-ethyl-7-fluoro-3-hydroxynaphthalen-1-yl)-2-(((2R,7aS)-2-fluorotetrahydro-1H-pyrrolizin-7a(5H)-yl)methoxy)-5,6,7,8-tetrahydropyrido[3,4-d]pyrimidin-4-yl)-3-azabicyclo[3.2.1]octan-6-ol]
< 2	23	< 2	< 2	29	8160	137	48	38	19	336	CCc1c(F)ccc2cc(O)cc(N3CCc4c(nc(OC[C@]56CCCN5[C@H](COC(=O)N(C)C)CC6)nc4N4CCCn5nc(C(=O)N(C)C)cc5C4)C3)c12 [Example 586, ((3S,7aR)-7a-(((4-(2-(dimethylcarbamoyl)-7,8-dihydro-4H-pyrazolo[1,5-a][1,4]diazepin-5(6H)-yl)-7-(8-ethyl-7-fluoro-3-hydroxynaphthalen-1-yl)-5,6,7,8-tetrahydropyrido[3,4-d]pyrimidin-2-yl)oxy)methyl)hexahydro-1H-pyrrolizin-3-yl)methyl dimethylcarbamate]
< 2	11	< 2	< 2	164	170	25	33	3.3	131	82	O=C1NC(=O)[C@]2(CCCN(c3nc(OC[C@@]45CCCN4C[C@H](F)C5)nc4c3CCN(c3cc(O)cc5ccc(F)c(Cl)c35)C4)C2)N1 [Example 587, (R)-7-(7-(8-chloro-7-fluoro-3-hydroxynaphthalen-1-yl)-2-(((2R,7aS)-2-fluorotetrahydro-1H-pyrrolizin-7a(5H)-yl)methoxy)-5,6,7,8-tetrahydropyrido[3,4-d]pyrimidin-4-yl)-1,3,7-triazaspiro[4.5]decane-2,4-dione]
< 2	211	< 2	< 2	779	6390	276	455	250	460	544	CCc1c(F)ccc2cc(O)cc(N3CCc4c(nc(OCC5(CN(C)C)CC5)nc4N4CCCC5(CCO5)C4)C3)c12 (stereo not drawn) [Example 588, 4-(2-((1-((dimethylamino)methyl)cyclopropyl)methoxy)-4-(1-oxa-6-azaspiro[3.5]nonan-6-yl)-5,8-dihydropyrido[3,4-d]pyrimidin-7(6H)-yl)-5-ethyl-6-fluoronaphthalen-2-ol]
< 2	2	< 2	< 2	3	1080	16	6	2.5	6	30	CCc1c(F)ccc2cc(O)cc(N3CCc4c(nc(OC[C@@]56CCCN5C[C@H](F)C6)nc4N4CCCCn5nc(C(=O)N(C)C)c(Cl)c5C4)C3)c12 [Example 589, 3-chloro-5-(7-(8-ethyl-7-fluoro-3-hydroxynaphthalen-1-yl)-2-(((2R,7aS)-2-fluorotetrahydro-1H-pyrrolizin-7a(5H)-yl)methoxy)-5,6,7,8-tetrahydropyrido[3,4-d]pyrimidin-4-yl)-N,N-dimethyl-4,5,6,7,8,9-hexahydropyrazolo[1,5-a][1,4] diazocine-2-carboxamide]
< 2	4	< 2	< 2	8	3450	50	29	11	14	148	CCc1c(F)ccc2cc(O)cc(N3CCc4c(nc(OC[C@@]56CCCN5C[C@H](F)C6)nc4N4CCCCn5nc(C(=O)N(C)C6CC6)cc5C4)C3)c12 [Example 592, N-cyclopropyl-5-(7-(8-ethyl-7-fluoro-3-hydroxynaphthalen-1-yl)-2-(((2R,7aS)-2-fluorotetrahydro-1H-pyrrolizin-7a(5H)-yl)methoxy)-5,6,7,8-tetrahydropyrido[3,4-d]pyrimidin-4-yl)-N-methyl-4,5,6,7,8,9-hexahydropyrazolo[1,5-a][1,4] diazocine-2-carboxamide]
< 2	16	< 2	< 2	50	9360	158	114	49.1	19	515	CCc1c(F)ccc2cc(O)cc(N3CCc4c(nc(OC[C@]56CCCN5[C@H](CNS(=O)(=O)N(C)C)CC6)nc4N4CCCn5nc(C(=O)N(C)C)cc5C4)C3)c12 [Example 593, 5-(2-(((3S,7aR)-3-(((N,N-dimethylsulfamoyl)amino)methyl)tetrahydro-1H-pyrrolizin-7a(5H)-yl)methoxy)-7-(8-ethyl-7-fluoro-3-hydroxynaphthalen-1-yl)-5,6,7,8-tetrahydropyrido[3,4-d]pyrimidin-4-yl)-N,N-dimethyl-5,6,7,8-tetrahydro-4H-pyrazolo[1,5-a][1,4]diazepine-2-carboxamide]
7	595	9	11	2490	> 10000	1280	2670	> 10000	1920	3340	CCc1c(F)ccc2cc(O)cc(N3CCc4c(nc(OCC5(CN(C)C)CC5)nc4N4CC(C)CC(CO)C4)C3)c12 (stereo not drawn) [Example 596, 4-(2-((1-((dimethylamino)methyl)cyclopropyl)methoxy)-4-(3-(hydroxymethyl)-5-methylpiperidin-1-yl)-5,8-dihydropyrido[3,4-d]pyrimidin-7(6H)-yl)-5-ethyl-6-fluoronaphthalen-2-ol]
12	757	8	16	1740	> 10000	1260	1540	1450	2380	4280	CCc1c(F)ccc2cc(O)cc(N3CCc4c(nc(OCC5(CN(C)C)CC5)nc4N4CCCC(c5cn(C)nn5)C4)C3)c12 (stereo not drawn) [Example 598, 4-(2-((1-((dimethylamino)methyl)cyclopropyl)methoxy)-4-(3-(1-methyl-1H-1,2,3-triazol-4-yl)piperidin-1-yl)-5,8-dihydropyrido[3,4-d]pyrimidin-7(6H)-yl)-5-ethyl-6-fluoronaphthalen-2-ol]
